The source of these data is patent publication US12448388B2, “PRMT5 inhibitors and uses thereof” (Gilead Sciences, Inc., priority 2023, dated 2025).

In this assay the test system is HCT116 MTAP-deleted cell lines. Description: Cell viability assay (CellTiter-Glo, 7 days), HCT116 MTAP-deleted. It counts as cell-based. Conditions: Homo sapiens, HCT-116; cell viability, HCT116 MTAP-deleted; class symbols; read-out: CC50. Here is the method:
Control compounds were analyzed in parallel each time for quality control. In Brief, on Day -1, a serial dilution of stock compounds in DMSO was performed using BioMek liquid handlers and dispensed using Echo acoustic dispenser into 384 well plates. Both tool compounds and sample compounds were spotted in the same plate for a dose response of PRMT5 inhibitors. Compound plates were stored as frozen until the cells were ready for seeding. […] After equilibrating the plate in room temperature, the cells were incubated for 7 days inside the sealed incubator set at 37° C. with 90% humidity and 5% CO2. On Day 7, the viability of cells was measured using a CTG assay kit (CellTitre-Glo;Promega cat no. G7573). Shortly, 40 μl per well of luminescent cell viability assay reagent were dispensed using EL460 liquid dispenser 5 μl cassette. CTG luminescence signal was measured using an EnVision plate reader (PerkinElmer) in accordance with manufacturer's instruction. […] Selectivity with * is artificially high due to limited solubility of the compound hampering accurate measurement of WT CC50.
Consider `CC1COC2Cc3cc(C(F)(F)F)ccc3C2N1C(=O)c1cc2c(cc1F)nc(N)c1cncn12` (racemic) [Ff-85, (4-amino-7-fluoroimidazo[1,5-a]quinoxalin-8-yl)(3-methyl-7-(trifluoromethyl)-2,3,9,9a-tetrahydroindeno[2,1-b][1,4]oxazin-4(4aH)-yl)methanone], for which the CC50 is below 100 nM.

Take `Nc1nc2cc(F)c(C(=O)N3CCO[C@@H]4Cc5nc(C(F)(F)F)ccc5[C@@H]43)cc2n2cncc12` (racemic) [Ff-88, Rac-(4-amino-7-fluoroimidazo[1,5-a]quinoxalin-8-yl)((4aR,9bS)-7-(trifluoromethyl)-2,3,5,9b-tetrahydropyrido[3′,2′:3,4]cyclopenta[1,2-b][1,4]oxazin-1(4aH)-yl)methanone]: the CC50 fell in the range of 100 to 1000 nM.

With `Nc1nc2cc(F)c(C(=O)N3CC[C@H]4C[C@@H]3c3ccc(C(F)(F)F)nc34)cc2n2cncc12` (racemic) [Ff-90, Rac-(4-amino-7-fluoroimidazo[1,5-a]quinoxalin-8-yl)((5R,9S)-2-(trifluoromethyl)-5,7,8,9-tetrahydro-6H-5,9-methanopyrido[3,2-c]azepin-6-yl)methanone], the CC50 was in the range of 100 to 1000 nM.

As to `Nc1nc2cc(Cl)c(C(=O)N3CC[C@H]4C[C@@H]3c3ccc(C(F)(F)F)nc34)cc2n2cncc12` (racemic) [Ff-91, Rac-(4-amino-7-chloroimidazo[1,5-a]quinoxalin-8-yl)((5R,9S)-2-(trifluoromethyl)-5,7,8,9-tetrahydro-6H-5,9-methanopyrido[3,2-c]azepin-6-yl)methanone], the 50% cytotoxic concentration (CC50) was below 100 nM.

As for `Cc1ncc2c(N)nc3cc(F)c(C(=O)N4CCC[C@@H]5Oc6cc(C(F)(F)F)ccc6[C@@H]54)cc3n12` (racemic) [Ff-99, Rac-(4-amino-7-fluoro-1-methylimidazo[1,5-a]quinoxalin-8-yl)(7-(trifluoromethyl)-3,4,4a,9b-tetrahydrobenzofuro[3,2-b]pyridin-1(2H)-yl)methanone], the CC50 was below 100 nM.

Take `C[C@@H]1CC[C@@H]2Oc3cc(C(F)(F)F)ccc3[C@@H]2N1C(=O)c1cc2c(cc1F)nc(N)c1cncn12` (racemic) [Ff-100, Rac-(4-amino-7-fluoroimidazo[1,5-a]quinoxalin-8-yl)((2R,4aS,9bS)-2-methyl-7-(trifluoromethyl)-3,4,4a,9b-tetrahydrobenzofuro[3,2-b]pyridin-1(2H)-yl)methanone]: the CC50 was below 100 nM.

For the compound `Nc1nc2cc(F)c(C(=O)N3CCC[C@@H]4Oc5cc(F)c(F)cc5[C@@H]43)cc2n2cncc12` (racemic) [Ff-101, Rac-(4-amino-7-fluoroimidazo[1,5-a]quinoxalin-8-yl)((4aS,9bS)-7,8-difluoro-3,4,4a,9b-tetrahydrobenzofuro[3,2-b]pyridin-1(2H)-yl)methanone], the CC50 lay within 100 to 1000 nM.

As to `Nc1nc2cc(F)c(C(=O)N3CCC[C@@H]4Oc5c(ccc(F)c5F)[C@@H]43)cc2n2cncc12` (racemic) [Ff-102, Rac-(4-amino-7-fluoroimidazo[1,5-a]quinoxalin-8-yl)((4aS,9bS)-6,7-difluoro-3,4,4a,9b-tetrahydrobenzofuro[3,2-b]pyridin-1(2H)-yl)methanone], the CC50 lay in the range of 100 to 1000 nM.

For `C[C@@H]1CC[C@@H]2Oc3cc(C(F)(F)F)ccc3[C@@H]2N1C(=O)c1cc2c(cn1)nc(N)c1cncn12` (racemic) [Ff-106, Rac-(4-aminoimidazo[1,5-a]pyrido[3,4-e]pyrazin-8-yl)((2R,4aS,9bS)-2-methyl-7-(trifluoromethyl)-3,4,4a,9b-tetrahydrobenzofuro[3,2-b]pyridin-1(2H)-yl)methanone], the CC50 is below 100 nM.

With `Nc1nc2cc(F)c(C(=O)N3C[C@H](F)CC4Oc5cc(C(F)(F)F)ccc5[C@@H]43)cc2n2cncc12` (mixture of isomers) [Ff-112, Rac-(4-amino-7-fluoroimidazo[1,5-a]quinoxalin-8-yl)((3R,4aS,9bS)-3-fluoro-7-(trifluoromethyl)-3,4,4a,9b-tetrahydrobenzofuro[3,2-b]pyridin-1(2H)-yl)methanone], the CC50 is below 100 nM.

Turning to `Nc1nc2cc(F)c(C(=O)N3CCC[C@@H]4Oc5cc(OC(F)F)c(F)cc5[C@@H]43)cc2n2cncc12` (racemic) [Ff-157, rac-(4-amino-7-fluoroimidazo[1,5-a]quinoxalin-8-yl)((4aS,9bS)-7-(difluoromethoxy)-8-fluoro-3,4,4a,9b-tetrahydrobenzofuro[3,2-b]pyridin-1(2H)-yl)methanone], the CC50 is below 100 nM.

Take `Nc1nc2cc(F)c(C(=O)N3C[C@H](F)CCC3c3ccc(C(F)(F)F)cn3)cc2n2cncc12` (mixture of isomers) [Ff-228, (4-amino-7-fluoroimidazo[1,5-a]quinoxalin-8-yl)((5R)-5-fluoro-2-(5-(trifluoromethyl)pyridin-2-yl)piperidin-1-yl)methanone]: the half-maximal cytotoxic concentration (CC50) was below 100 nM.

In the case of `C[C@H]1CCN(C(=O)c2cc3c(cc2F)nc(N)c2cncn23)[C@@H](c2ccc(C(F)(F)F)cc2)C1` (racemic) [Ff-241, Rac-(4-amino-7-fluoroimidazo[1,5-a]quinoxalin-8-yl)((2R,4S)-4-methyl-2-(4-(trifluoromethyl)phenyl)piperidin-1-yl)methanone], the CC50 lay in the range of 100 to 1000 nM.

Turning to `Nc1nc2ccc(C(=O)N3CCC[C@@H]4Cc5cc(C(F)(F)F)ccc5[C@@H]43)cc2n2cncc12` (racemic) [Ff-249, Rac-(4-aminoimidazo[1,5-a]quinoxalin-8-yl)((4aR,9bR)-7-(trifluoromethyl)-2,3,4,4a,5,9b-hexahydro-1H-indeno[1,2-b]pyridin-1-yl)methanone], the CC50 is 100 to 1000 nM.

Take `Nc1nc2cnc(C(=O)N3CCC[C@@H]4Cc5cc(C(F)(F)F)ccc5[C@@H]43)cc2n2cncc12` (racemic) [Ff-250, Rac-(4-aminoimidazo[1,5-a]pyrido[3,4-e]pyrazin-8-yl)((4aR,9bR)-7-(trifluoromethyl)-2,3,4,4a,5,9b-hexahydro-1H-indeno[1,2-b]pyridin-1-yl)methanone]: the CC50 is below 100 nM.

For the compound `CC1(C)C[C@@H]2Oc3cc(C(F)(F)F)ccc3[C@@H]2N(C(=O)c2cc3c(cc2F)nc(N)c2cncn23)C1` (racemic) [Ff-257, Rac-(4-amino-7-fluoroimidazo[1,5-a]quinoxalin-8-yl)((4aR,9bR)-3,3-dimethyl-7-(trifluoromethyl)-3,4,4a,9b-tetrahydrobenzofuro[3,2-b]pyridin-1(2H)-yl)methanone], the CC50 is below 100 nM.

Take `CC1(C)C[C@@H]2Oc3cc(C(F)(F)F)ccc3[C@@H]2N(C(=O)c2cc3c(cn2)nc(N)c2cncn23)C1` (racemic) [Ff-258, Rac-(4-aminoimidazo[1,5-a]pyrido[3,4-e]pyrazin-8-yl)((4aR,9bR)-3,3-dimethyl-7-(trifluoromethyl)-3,4,4a,9b-tetrahydrobenzofuro[3,2-b]pyridin-1(2H)-yl)methanone]: the CC50 is below 100 nM.

`CC1(C)C[C@@H]2Oc3cc(OC(F)(F)F)ccc3[C@@H]2N(C(=O)c2cc3c(cn2)nc(N)c2cncn23)C1` (racemic) [Ff-262, Rac-(4-aminoimidazo[1,5-a]pyrido[3,4-e]pyrazin-8-yl)((4aS,9bS)-3,3-dimethyl-7-(trifluoromethoxy)-3,4,4a,9b-tetrahydrobenzofuro[3,2-b]pyridin-1(2H)-yl)methanone]: the CC50 was in the range of 100 to 1000 nM.

As for `C[C@H]1OC[C@@H](N(C)C(=O)c2cc3c(cc2F)nc(N)c2cncn23)c2ccc(C(F)(F)F)cc21` (racemic) [Ff-283, Rac-4-amino-7-fluoro-N-methyl-N-((1R,4S)-1-methyl-7-(trifluoromethyl)isochroman-4-yl)imidazo[1,5-a]quinoxaline-8-carboxamide], the CC50 is below 100 nM.

For `C[C@H]1OC[C@@H](N(C)C(=O)c2cc3c(cc2Cl)nc(N)c2cncn23)c2ccc(C(F)(F)F)cc21` (racemic) [Ff-284, Rac-4-amino-7-chloro-N-methyl-N-((1R,4S)-1-methyl-7-(trifluoromethyl)isochroman-4-yl)imidazo[1,5-a]quinoxaline-8-carboxamide], the half-maximal cytotoxic concentration (CC50) is below 100 nM.

On to `Nc1nc2cc(F)c(C(=O)N3CCC[C@@H]4OCc5cc(OC(F)F)ccc5[C@@H]43)cc2n2cncc12` (racemic) [Ff-287, Rac-(4-amino-7-fluoroimidazo[1,5-a]quinoxalin-8-yl)((4aS,10bS)-8-(difluoromethoxy)-2,3,4,4a,6,10b-hexahydro-1H-isochromeno[4,3-b]pyridin-1-yl)methanone], for which the CC50 was below 100 nM.

For the compound `Nc1nc2ccc(C(=O)N3CCC[C@@H]4OCc5cc(OC(F)F)ccc5[C@@H]43)cc2n2cncc12` (racemic) [Ff-288, Rac-(4-aminoimidazo[1,5-a]quinoxalin-8-yl)((4aS,10bS)-8-(difluoromethoxy)-2,3,4,4a,6,10b-hexahydro-1H-isochromeno[4,3-b]pyridin-1-yl)methanone], the CC50 was below 100 nM.

As to `Nc1nc2cc(F)c(C(=O)N3[C@@H](c4ccc(C(F)(F)F)cn4)CC[C@@H]4C[C@@H]43)cc2n2cncc12` (racemic) [Ff-293, Rac-(4-amino-7-fluoroimidazo[1,5-a]quinoxalin-8-yl)((1S,3R,6R)-3-(5-(trifluoromethyl)pyridin-2-yl)-2-azabicyclo[4.1.0]heptan-2-yl)methanone], the CC50 was in the range of 100 to 1000 nM.

On to `Nc1nc2cc(F)c(C(=O)N3CCC[C@@H]4OCc5cc(-c6ccn(C(F)(F)F)n6)ccc5[C@@H]43)cc2n2cncc12` (racemic) [Ff-294, Rac-(4-amino-7-fluoroimidazo[1,5-a]quinoxalin-8-yl)((4aS,10bS)-8-(1-(trifluoromethyl)-1H-pyrazol-3-yl)-2,3,4,4a,6,10b-hexahydro-1H-isochromeno[4,3-b]pyridin-1-yl)methanone], for which the CC50 was below 100 nM.

As usually defined, the CC50 is the concentration at which the toxic effect on the cells reaches its halfway point.
